The text below walks through data of US20110280940A1, “Di-Vanilloyl And Tri-Vanilloyl Derivatives For Use In Anti-Cancer Therapy” (priority 2008, published 2011).

SMILES strings stand for the structures.

The test system of assay [1] is 255 protein kinases. As to the kind of experiment: Kinase inhibition profile of DLT95-Cl at 20 μM (33 PanQinase). The conditions noted are these: over the 255 kinases screened. Type of assay: biochemical, human. As for the experimental part: In view of the results in FIG. 5 and Table 7, the inventors performed a broader analysis on impairment of 255 protein kinases by DLT95-Cl compound of the invention.
255 kinases where tested with DLT95-Cl at 20 μM to establish the kinase inhibition profile of the compound.
The kinase inhibition profile of DLT95-Cl at 20 μM was determined using 255 protein kinases. Residual activity values were measured by testing each compound at one concentration in duplicate in each kinase assay. A radiometric protein kinase assay (33 PanQinase®Activity Assay) was used for measuring the kinase activity of 250 protein kinases. All kinase assays were performed in 96-well flashPlates™ from Perkin Elmer (Boston, Mass., USA) in a 50 μl reaction volume. […]
Incorporation of ^33Pi (counting of “cpm”) was determined with a microplate scintillation counter (Microbeta, Wallac).
For each kinase, the median value of the cpm of three wells with complete reaction cocktails, but without kinase, was defined as “low control” (n=2). This value reflects unspecific binding of radioactivity to the plate in the absence of protein kinase but in the presence of the substrate. […] The residual activity (in %) for each compound well was calculated by using the following formula: Res. Activity (%)=100×[(cpm of compound−low control)/(high control−low control)]

Assay [2] has as its system GSK-3. The experiment in a line: Kinase activity assay, GSK3. Type of assay: biochemical, porcine. The conditions noted are these: 10 μM, 1% DMSO, 15 μM ATP; residual activity. The procedure:
(§1) Buffer A: 10 mM MgCl2, 1 mM EGTA, 1 mM DTT, 25 mM Tris-HCl pH 7.5, 50 μg heparin/ml. Buffer C: 60 mM β-glycerophosphate, 15 mM p-nitrophenylphosphate, 25 mM Mops (pH 7.2), 5 mM EGTA, 15 mM MgCl2, 1 mM DTT, 1 mM sodium vanadate, 1 mM phenyl phosphate.
(§2) Kinase activities were assayed in Buffer A or C, at 30° C., at a final ATP concentration of 15 μM. Blank values were subtracted and activities expressed in % of the maximal activity, i.e. in the absence of inhibitors. Controls were performed with appropriate dilutions of DMSO.
GSK-3 (porcine brain, native) was assayed, as described for CDK1 but in Buffer A and using a GSK-3 specific substrate (GS-1: […]pEDEEE) (Seq. ID NO 1) (pS stands for phosphorylated serine) (Primot et al., 2000, Protein Expr. & Purif. 20 (3), 394-404). GS-1 was synthesized by Millegen (Labege, France).

In assay [3] the test system is CK1. As to the kind of experiment: Kinase activity assay, CK1. Type of assay: biochemical, porcine. The settings on record: 10 μM, 1% DMSO, 15 μM ATP; residual activity. The procedure: as §1, §2
CK1 (porcine brain, native) was assayed as described for CDK1 but using the CK1-specific peptide substrate […]pSAYSITA (Seq. ID NO 2) (Reinhardt et al., 2007, Protein Expr. & Purif. 54, 101-109), obtained from Millegen (Labege, France).

In assay [4] the target is pfGSK3 (Plasmodium falciparum, UniProt O77344). The experiment in a line: Kinase activity assay, pfGSK3. Type of assay: biochemical. The conditions noted are these: 10 μM, 1% DMSO, 15 μM ATP; residual activity. As for the experimental part:
as §1, §2

Assay [5] deals with T1, CDK2/cyclin A (Homo sapiens, UniProt P24941).
T1 construct: made in house
As to the kind of experiment: Kinase activity assay, CDK2A. The settings on record: 10 μM, 1% DMSO, 15 μM ATP; residual activity. Type of assay: biochemical. As for the experimental part:
as §1, §2
CDK1/cyclin B (M phase starfish oocytes, native), CDK2/cyclin A, CDK2/cyclin E, CDK5/p25 and CDK7/cyclin H (human, recombinant) were prepared as previously described (Leclerc et al., 2001, J. Biol. Chem. 2001, 276, 251-260; Bach et al., 2005, J Biol Chem 280: 31208-31219). Their kinase activity was assayed in buffer C, with 1 mg histone H1/ml, in the presence of 15 μM [gamma-^33P] ATP (3,000 Ci/mmol; 10 mCi/ml) in a final volume of 30 μl. After 30 min incubation at 30° C., 25 μl aliquots of supernatant were spotted onto 2.5×3 cm pieces of Whatman P81 phosphocellulose paper, and, 20 sec later, the filters were washed five times (for at least 5 min each time) in a solution of 10 ml phosphoric acid/liter of water. The wet filters were counted in the presence of 1 ml ACS (Amersham) scintillation fluid.

Sequence of pfGSK3 (O77344 1-440): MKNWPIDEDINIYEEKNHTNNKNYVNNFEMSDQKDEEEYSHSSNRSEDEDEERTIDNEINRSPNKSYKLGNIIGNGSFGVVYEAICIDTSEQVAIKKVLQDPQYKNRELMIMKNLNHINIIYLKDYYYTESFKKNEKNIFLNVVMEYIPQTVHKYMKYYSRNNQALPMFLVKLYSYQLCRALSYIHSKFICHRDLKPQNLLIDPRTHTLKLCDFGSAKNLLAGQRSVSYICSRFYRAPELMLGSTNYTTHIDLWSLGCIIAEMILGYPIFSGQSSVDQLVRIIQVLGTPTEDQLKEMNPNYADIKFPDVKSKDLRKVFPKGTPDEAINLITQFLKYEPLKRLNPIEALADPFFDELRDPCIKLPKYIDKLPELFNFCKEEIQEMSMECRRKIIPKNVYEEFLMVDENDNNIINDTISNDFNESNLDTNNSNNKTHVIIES

In the case of `O=C(OCc1cc(COC(=O)c2ccc(O)c(Cl)c2)cc(COC(=O)c2ccc(O)c(Cl)c2)c1)c1ccc(O)c(Cl)c1` [DLT95-Cl, [3,5-bis[(4-hydroxy-3-chloro-benzoyl)oxymethyl]phenyl]methyl 4-hydroxy-3-chloro-benzoate], the “number of kinases whose activity is ≧50% impaired” value in assay [1] was 249.
Turning to `COc1cc(C(=O)OCCOC(=O)c2ccc(O)c(OC)c2)ccc1O` [DLT1, Ethane-1,2-diyl bis-(4-hydroxy-3-methoxybenzoate)], in assay [2], the “% ENZYMATIC ACTIVITY, GSK3” value is 77%. Further, the “% ENZYMATIC ACTIVITY, Ckone” value in assay [3] worked out at 62%. Moreover, in assay [4], the “% ENZYMATIC ACTIVITY, pfGSK3” value is on record as 92%. The “% ENZYMATIC ACTIVITY, CDK2A” value in assay [5] came to 91%.
